Each block holds one compound with its values, some of them ahead of it.
Tests used:
Format in all cases: biochemical
ROCK-II (h) = target: T1, ROCK-II (h) (Homo sapiens, UniProt O75116); test: Upstate kinase panel: ROCK-II
T1 construct: purchased Upstate
Protocol: (§1) These kinases are produced by Upstate and screened according to the respective protocols indicated by the supplier (http://www.upstate.com/features/kp_protocols.asp). Examples 1, 12, 166 and 238 were tested at a concentration of 20 μM, 10 μM, 1 μM and 1 μM respectively in the presence of 10 μM of ATP for examples 1 and 12 and at the concentrations of ATP shown in parentheses for examples 166 and 238. The results shown in Table VII correspond to percentage inhibition of the kinase tested in the presence of the compound, relative to a control effected without the compound.

KDR (h) = target: T2, KDR (h) (Homo sapiens, UniProt P35968); test: Upstate kinase panel: KDR
T2 construct: purchased Upstate
Protocol: as §1

PDGFRβ (h) = target: T3, PDGFRβ (h) (Homo sapiens, UniProt P09619); test: Upstate kinase panel: PDGFRβ
T3 construct: purchased Upstate
Protocol: as §1

MAPK2 (h) = target: T4, MAPK2 (h) (Homo sapiens, UniProt P28482); test: Upstate kinase panel: MAPK2
T4 construct: purchased Upstate
Protocol: as §1

c-RAF (h) = target: T5, c-RAF (h) (Homo sapiens, UniProt P04049, Y340D/Y341D); test: Upstate kinase panel: c-RAF
T5 construct: purchased Upstate
Protocol: as §1

Flt3 (h) = target: T6, Flt3 (h) (Homo sapiens, UniProt P36888); test: Upstate kinase panel: Flt3
T6 construct: purchased Upstate
T6 sequence (P36888 27-993): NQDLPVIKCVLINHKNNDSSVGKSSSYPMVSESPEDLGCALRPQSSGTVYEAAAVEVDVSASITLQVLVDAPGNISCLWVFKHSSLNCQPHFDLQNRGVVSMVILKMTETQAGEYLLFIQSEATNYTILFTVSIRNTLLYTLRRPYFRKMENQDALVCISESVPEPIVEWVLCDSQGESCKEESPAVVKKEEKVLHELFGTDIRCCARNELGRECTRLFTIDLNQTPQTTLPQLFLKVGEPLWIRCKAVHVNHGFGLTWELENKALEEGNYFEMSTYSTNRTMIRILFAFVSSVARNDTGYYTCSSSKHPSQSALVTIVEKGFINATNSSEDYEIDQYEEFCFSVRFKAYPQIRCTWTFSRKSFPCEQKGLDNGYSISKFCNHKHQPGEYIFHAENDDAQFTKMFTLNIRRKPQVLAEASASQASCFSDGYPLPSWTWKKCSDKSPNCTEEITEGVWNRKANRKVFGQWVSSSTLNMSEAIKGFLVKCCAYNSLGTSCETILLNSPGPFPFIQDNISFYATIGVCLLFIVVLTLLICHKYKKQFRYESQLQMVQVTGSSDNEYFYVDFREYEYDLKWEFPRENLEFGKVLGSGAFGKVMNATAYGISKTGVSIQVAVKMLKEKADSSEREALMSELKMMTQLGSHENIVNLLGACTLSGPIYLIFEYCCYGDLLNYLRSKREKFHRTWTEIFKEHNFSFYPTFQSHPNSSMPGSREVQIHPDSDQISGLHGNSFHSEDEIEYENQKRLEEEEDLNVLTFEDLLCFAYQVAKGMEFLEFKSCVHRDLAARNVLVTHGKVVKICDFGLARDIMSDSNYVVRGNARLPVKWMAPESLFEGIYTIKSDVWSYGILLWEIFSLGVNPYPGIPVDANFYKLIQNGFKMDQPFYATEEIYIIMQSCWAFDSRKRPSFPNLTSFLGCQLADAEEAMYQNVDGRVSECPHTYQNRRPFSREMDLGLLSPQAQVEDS
Protocol: as §1

cKit (h) = target: T7, cKit (h) (Homo sapiens, UniProt P10721); test: Upstate kinase panel: cKit
T7 construct: purchased Upstate
Protocol: as §1

RET = target: T8, RET (Homo sapiens, UniProt P07949); test: Inhibition of RET kinase activity, recombinant RET method (Kinase-Glo); conditions: RET 2 μg/ml, poly-EY4 substrate, 20 μM ATP, two hours at 30° C.
T8 construct: purchased Upstate 14-570MG
Procedure, shortened: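 Recombinant RET at 2 μg/ml in 20 mM MOPS/NaOH pH 7.0, 1 mM EDTA, 5% glycerol, 0.01% Brij35, 0.1% 2-mercaptoethanol, 1 mg/ml BSA; compounds 10 nM–30 μM final.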

Aurora-A (h) = target: T9, Aurora-A (h) (Homo sapiens, UniProt O14965); test: Upstate kinase panel: Aurora-A
T9 construct: purchased Upstate
T9 sequence (O14965 1-403): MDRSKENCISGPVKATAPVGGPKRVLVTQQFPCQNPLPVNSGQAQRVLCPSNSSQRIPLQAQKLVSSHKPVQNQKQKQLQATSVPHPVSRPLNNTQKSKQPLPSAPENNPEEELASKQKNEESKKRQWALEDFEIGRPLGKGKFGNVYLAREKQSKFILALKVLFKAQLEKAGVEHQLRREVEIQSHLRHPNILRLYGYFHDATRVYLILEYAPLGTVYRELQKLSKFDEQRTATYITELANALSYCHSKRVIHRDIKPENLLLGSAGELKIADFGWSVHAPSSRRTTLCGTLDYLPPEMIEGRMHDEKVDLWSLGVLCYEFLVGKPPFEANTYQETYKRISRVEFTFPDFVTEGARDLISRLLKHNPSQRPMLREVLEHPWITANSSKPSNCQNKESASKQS
Protocol: as §1

PKBγ (h) = target: T10, PKBγ (h) (Homo sapiens, UniProt Q9Y243); test: Upstate kinase panel: PKBγ
T10 construct: purchased Upstate
Protocol: as §1

[1] = compound 20 μM, 10 μM ATP, read-out: % inhibition at 20 μMol
[2] = compound 10 μM, 10 μM ATP, read-out: % inhibition at 10 μMol
[3] = compound 1 μM, ATP (15), read-out: % inhibition at 1 μMol
[4] = compound 1 μM, ATP (200), read-out: % inhibition at 1 μMol

T3 sequence (P09619 33-1106): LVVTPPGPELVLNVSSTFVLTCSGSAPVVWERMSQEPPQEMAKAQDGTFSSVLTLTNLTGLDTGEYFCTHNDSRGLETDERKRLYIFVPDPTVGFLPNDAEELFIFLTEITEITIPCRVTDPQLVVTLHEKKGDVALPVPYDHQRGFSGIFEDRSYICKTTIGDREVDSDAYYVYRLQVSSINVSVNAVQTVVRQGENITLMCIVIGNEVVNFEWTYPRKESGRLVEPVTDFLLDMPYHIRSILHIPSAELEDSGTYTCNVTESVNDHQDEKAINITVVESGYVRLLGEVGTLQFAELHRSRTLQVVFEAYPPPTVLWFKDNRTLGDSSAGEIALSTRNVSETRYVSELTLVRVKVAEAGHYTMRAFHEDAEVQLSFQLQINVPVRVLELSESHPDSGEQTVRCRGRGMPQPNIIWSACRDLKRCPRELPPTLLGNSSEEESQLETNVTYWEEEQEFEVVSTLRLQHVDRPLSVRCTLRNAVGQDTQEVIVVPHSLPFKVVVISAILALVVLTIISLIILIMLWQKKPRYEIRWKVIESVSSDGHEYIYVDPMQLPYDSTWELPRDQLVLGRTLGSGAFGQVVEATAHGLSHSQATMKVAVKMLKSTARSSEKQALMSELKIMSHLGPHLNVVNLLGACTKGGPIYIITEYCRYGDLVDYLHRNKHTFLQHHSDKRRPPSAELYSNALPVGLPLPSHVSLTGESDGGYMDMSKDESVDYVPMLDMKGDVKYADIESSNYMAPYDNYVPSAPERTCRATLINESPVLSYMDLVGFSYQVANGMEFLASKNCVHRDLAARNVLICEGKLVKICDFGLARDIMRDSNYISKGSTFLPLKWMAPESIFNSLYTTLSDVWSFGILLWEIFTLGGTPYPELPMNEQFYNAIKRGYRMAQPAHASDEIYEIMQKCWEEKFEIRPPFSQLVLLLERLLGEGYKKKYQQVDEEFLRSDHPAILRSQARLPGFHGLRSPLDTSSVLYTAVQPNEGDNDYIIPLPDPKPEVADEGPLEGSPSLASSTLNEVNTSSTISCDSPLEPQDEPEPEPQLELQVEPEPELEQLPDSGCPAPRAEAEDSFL
T8 sequence (P07949 29-1114): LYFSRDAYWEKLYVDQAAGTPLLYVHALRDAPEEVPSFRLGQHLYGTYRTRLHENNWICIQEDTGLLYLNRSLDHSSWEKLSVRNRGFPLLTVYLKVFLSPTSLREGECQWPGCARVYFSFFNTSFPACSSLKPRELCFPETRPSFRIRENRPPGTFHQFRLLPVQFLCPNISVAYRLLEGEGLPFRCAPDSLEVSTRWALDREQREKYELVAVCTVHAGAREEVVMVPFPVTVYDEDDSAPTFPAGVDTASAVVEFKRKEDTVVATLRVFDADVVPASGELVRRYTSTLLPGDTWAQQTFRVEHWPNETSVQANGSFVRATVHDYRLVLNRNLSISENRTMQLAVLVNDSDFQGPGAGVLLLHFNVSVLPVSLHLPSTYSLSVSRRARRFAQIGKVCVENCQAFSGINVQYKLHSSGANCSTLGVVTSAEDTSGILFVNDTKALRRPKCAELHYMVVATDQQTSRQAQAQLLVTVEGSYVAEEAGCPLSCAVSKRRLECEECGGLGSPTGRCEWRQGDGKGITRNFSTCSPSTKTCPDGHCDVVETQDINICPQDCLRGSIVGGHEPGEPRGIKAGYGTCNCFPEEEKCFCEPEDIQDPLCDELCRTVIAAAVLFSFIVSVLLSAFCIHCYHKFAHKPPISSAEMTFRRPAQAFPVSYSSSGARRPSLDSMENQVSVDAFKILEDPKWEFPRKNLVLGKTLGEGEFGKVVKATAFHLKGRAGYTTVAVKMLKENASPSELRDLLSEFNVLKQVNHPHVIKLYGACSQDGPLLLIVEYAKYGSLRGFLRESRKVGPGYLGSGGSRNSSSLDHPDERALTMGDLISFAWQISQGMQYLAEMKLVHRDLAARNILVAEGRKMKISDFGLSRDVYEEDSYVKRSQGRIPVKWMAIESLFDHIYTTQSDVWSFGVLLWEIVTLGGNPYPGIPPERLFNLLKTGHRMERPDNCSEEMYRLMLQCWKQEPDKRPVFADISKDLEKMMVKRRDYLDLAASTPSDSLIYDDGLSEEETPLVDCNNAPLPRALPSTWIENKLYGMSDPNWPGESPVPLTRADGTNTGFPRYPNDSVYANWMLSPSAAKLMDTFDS
T5 sequence (P04049 306-648 Y340D/Y341D limits assumed): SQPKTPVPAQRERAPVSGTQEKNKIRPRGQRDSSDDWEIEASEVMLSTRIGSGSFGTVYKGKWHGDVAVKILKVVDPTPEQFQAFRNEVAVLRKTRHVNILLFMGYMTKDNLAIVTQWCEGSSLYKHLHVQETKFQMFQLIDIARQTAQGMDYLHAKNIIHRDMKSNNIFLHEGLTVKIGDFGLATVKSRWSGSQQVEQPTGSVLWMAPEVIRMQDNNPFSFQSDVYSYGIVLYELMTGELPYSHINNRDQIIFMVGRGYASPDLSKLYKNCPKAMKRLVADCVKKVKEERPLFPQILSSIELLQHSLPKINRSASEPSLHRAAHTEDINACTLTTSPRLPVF
T4 sequence (P28482 whole entry): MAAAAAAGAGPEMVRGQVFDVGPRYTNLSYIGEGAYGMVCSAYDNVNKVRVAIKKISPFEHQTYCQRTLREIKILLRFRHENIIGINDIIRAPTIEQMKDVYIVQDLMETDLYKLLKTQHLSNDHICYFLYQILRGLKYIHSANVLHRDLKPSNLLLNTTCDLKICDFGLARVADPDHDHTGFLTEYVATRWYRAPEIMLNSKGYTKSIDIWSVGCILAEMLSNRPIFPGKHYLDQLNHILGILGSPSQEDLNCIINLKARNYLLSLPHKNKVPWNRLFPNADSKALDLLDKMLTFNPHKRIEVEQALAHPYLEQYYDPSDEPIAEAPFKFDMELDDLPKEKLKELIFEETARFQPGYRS
T2 sequence (P35968 20-1356): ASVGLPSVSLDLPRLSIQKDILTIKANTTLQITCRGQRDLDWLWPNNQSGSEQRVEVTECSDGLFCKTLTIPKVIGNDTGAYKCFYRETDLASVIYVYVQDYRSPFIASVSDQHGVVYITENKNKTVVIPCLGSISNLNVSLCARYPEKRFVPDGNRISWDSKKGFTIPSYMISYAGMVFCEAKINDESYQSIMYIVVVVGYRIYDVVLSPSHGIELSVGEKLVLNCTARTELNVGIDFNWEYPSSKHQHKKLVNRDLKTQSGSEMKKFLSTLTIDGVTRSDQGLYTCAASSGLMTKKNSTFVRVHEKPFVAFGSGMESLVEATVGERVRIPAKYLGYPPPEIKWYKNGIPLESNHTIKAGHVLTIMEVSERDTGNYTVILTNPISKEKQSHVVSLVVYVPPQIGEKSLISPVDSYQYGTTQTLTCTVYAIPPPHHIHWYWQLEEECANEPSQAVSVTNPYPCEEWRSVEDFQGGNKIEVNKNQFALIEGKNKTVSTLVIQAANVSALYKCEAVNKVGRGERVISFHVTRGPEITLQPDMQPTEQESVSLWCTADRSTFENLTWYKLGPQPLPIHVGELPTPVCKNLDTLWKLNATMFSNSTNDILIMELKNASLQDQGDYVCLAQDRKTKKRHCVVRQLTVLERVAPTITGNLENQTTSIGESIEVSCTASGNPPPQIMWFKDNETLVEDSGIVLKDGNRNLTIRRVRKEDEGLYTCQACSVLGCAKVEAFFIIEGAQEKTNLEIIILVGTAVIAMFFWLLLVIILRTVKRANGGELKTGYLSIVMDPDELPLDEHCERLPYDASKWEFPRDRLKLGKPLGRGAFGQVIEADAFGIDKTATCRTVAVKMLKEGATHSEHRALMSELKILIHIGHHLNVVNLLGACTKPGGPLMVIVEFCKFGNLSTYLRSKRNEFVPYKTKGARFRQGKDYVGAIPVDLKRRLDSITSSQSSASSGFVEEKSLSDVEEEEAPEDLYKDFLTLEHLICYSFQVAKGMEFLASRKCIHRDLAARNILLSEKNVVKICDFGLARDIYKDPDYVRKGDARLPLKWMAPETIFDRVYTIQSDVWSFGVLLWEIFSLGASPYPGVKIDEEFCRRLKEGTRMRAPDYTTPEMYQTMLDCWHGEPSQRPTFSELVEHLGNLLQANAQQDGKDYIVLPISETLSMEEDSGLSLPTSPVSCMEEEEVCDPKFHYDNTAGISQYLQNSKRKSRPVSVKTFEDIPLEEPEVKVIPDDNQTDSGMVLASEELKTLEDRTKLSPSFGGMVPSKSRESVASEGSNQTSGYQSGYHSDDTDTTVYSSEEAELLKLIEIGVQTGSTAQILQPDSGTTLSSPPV
T10 sequence (Q9Y243 whole entry): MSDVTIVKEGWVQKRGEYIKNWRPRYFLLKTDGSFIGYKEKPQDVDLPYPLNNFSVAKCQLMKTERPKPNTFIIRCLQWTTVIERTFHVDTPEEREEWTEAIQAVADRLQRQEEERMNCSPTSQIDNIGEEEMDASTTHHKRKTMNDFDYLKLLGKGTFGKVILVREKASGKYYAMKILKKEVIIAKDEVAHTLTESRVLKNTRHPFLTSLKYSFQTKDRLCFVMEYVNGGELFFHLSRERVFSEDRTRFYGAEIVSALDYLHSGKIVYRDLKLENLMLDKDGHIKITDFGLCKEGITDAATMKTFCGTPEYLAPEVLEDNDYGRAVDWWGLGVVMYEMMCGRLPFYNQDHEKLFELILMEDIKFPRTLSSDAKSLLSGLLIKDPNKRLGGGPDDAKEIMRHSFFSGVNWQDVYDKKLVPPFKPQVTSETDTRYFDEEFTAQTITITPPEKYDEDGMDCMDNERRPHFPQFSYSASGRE

inhibition at 20 µM (ROCK-II (h); [1]): 8% | inhibition at 20 µM (KDR (h); [1]): 100% | inhibition at 20 µM (PDGFRβ (h); [1]): 13% | inhibition at 20 µM (MAPK2 (h); [1]): 1% | inhibition at 20 µM (c-RAF (h); [1]): 17% | inhibition at 20 µM (Flt3 (h); [1]): 91% | inhibition at 20 µM (cKit (h); [1]): 20% | IC50 (RET): 1000 to 10000 nM | inhibition at 20 µM (Aurora-A (h); [1]): 16% | inhibition at 20 µM (PKBγ (h); [1]): 5%
SMILES: CCOC(=O)c1c[nH]c2c(=O)[nH]c3ccccc3c12 [Compound 1, 4-Oxo-4,5-dihydro-3H-pyrrolo[2,3-c]quinoline-1-ethyl carboxylate]

inhibition at 10 µM (ROCK-II (h); [2]): 17% | inhibition at 10 µM (KDR (h); [2]): 69% | inhibition at 10 µM (PDGFRβ (h); [2]): 0% | inhibition at 10 µM (MAPK2 (h); [2]): 3% | inhibition at 10 µM (c-RAF (h); [2]): 79% | inhibition at 10 µM (Flt3 (h); [2]): 51% | inhibition at 10 µM (cKit (h); [2]): 45% | IC50 (RET): < 100 nM | inhibition at 10 µM (Aurora-A (h); [2]): 94% | inhibition at 10 µM (PKBγ (h); [2]): 20%
SMILES: CCOC(=O)c1c[nH]c2c(=O)[nH]c3ccc(S(=O)(=O)Nc4ccc(F)cc4)cc3c12 [Compound 12, 8-(4-Fluorophenylsulfamoyl)-4-oxo-4,5-dihydro-3H-pyrrolo[2,3-c]quinoline-1-ethyl carboxylate]

inhibition at 1 µM (ROCK-II (h); [3]): 5% | inhibition at 1 µM (KDR (h); compound 1 μM, ATP (90), read-out: % inhibition at 1 μMol): 21% | inhibition at 1 µM (PDGFRβ (h); compound 1 μM, ATP (120), read-out: % inhibition at 1 μMol): 0% | inhibition at 1 µM (MAPK2 (h); compound 1 μM, ATP (155), read-out: % inhibition at 1 μMol): 0% | inhibition at 1 µM (c-RAF (h); compound 1 μM, ATP (45), read-out: % inhibition at 1 μMol): 3% | inhibition at 1 µM (Flt3 (h); [4]): 0% | inhibition at 1 µM (cKit (h); [4]): 4% | IC50 (RET): 100 to 1000 nM | inhibition at 1 µM (Aurora-A (h); [3]): 24% | inhibition at 1 µM (PKBγ (h); [4]): 2%
SMILES: CCOC(=O)c1c[nH]c2c(=O)[nH]c3ccc(-c4cccc(S(C)(=O)=O)c4)cc3c12 [Compound 238, 8-(3-Methanesulfonyl-phenyl)-4-oxo-4,5-dihydro-3H-pyrrolo[2,3-c]quinoline-1-ethyl carboxylate]
